Data: US7745459B2, “Quinolizinone compound and use thereof as HIV integrase inhibitor” (Japan Tobacco Inc., priority 2004, dated 2010)

Target: T1, HIV integrase (Human immunodeficiency virus type 1 group M subtype B, UniProt P12497, F1332H)
T1 construct: HIV integrase full length gene; made in house; host or cells: Escherichia coli BL21 (DE3)
Assay: Determination of enzyme (HIV integrase) inhibitory activity
Type: biochemical
Details: recombinant integrase protein (phenylalanine at codon 185 substituted by histidine); donor/target DNA, absorbance at 450 nm; read-out: Anti-integrase activity (IC50 value)
Source text: The following explains evaluation methods of the HIV integrase inhibitory activity of the compound of the present invention.
HIV integrase full length gene (J. Virol., 67, 425-437 (1993)) in which phenylalanine at codon 185 was substituted by histidine, was inserted between the restriction enzyme NdeI and XhoI sites of plasmid pET21a(+) (Novagen), whereby an integrase expression vector pET21a-INH was constructed.
Escherichia coli recombinant BL21 (DE3) transformed with plasmid pET21a-INH obtained in (i) was shake cultured at 37° C. in a liquid medium containing ampicillin. When the culture reached the logarithmic growth phase, isopropyl-β-D-thiogalactopyranoside was added to promote expression of integrase gene. The culture was continued for 3 hr to promote accumulation of the integrase protein. The recombinant E. coli was collected in pellets by centrifugal separation and preserved at −80° C.
The E. coli was suspended in Lysis buffer (20 mM HEPES (pH 7.5), 5 mM DTT, 10 mM CHAPS, 10% glycerol) containing 1 M sodium chloride and subjected to repeat pressurization and depressurization for rupture, and centrifugal separation at 4° C., 40,000×g, 60 min to recover a water-soluble fraction (supernatant). This was diluted 10-fold with Lysis buffer free of sodium chloride, mixed with SP-Sepharose (Pharmacia Corporation) and stirred at 4° C. for 60 min to allow adsorption of integrase protein to the resin. The resin was washed with Lysis buffer containing 100 mM sodium chloride and the integrase protein was eluted with Lysis buffer containing 1 M sodium chloride.
The eluted integrase protein solution was subjected to a Superdex 75 (Pharmacia Corporation) column for gel filtration. The protein was eluted with Lysis buffer containing 1 M sodium chloride.
The obtained fractions of the integrase protein were collected and preserved at −80° C.
The following DNA synthesized by Greiner was dissolved in TE buffer (10 mM Tris-hydrochloric acid (pH 8.0), 1 mM EDTA) and mixed with donor DNA, target DNA, and each complementary strand (+ and − strands) to 1 μM. The mixture was heated at 95° C. for 5 min, 80° C. for 10 min, 70° C. for 10 min, 60° C. for 10 min, 50° C. for 10 min and 40° C. for 10 min and kept at 25° C. to give a double stranded DNA, which was used for the test.
The donor DNA was diluted with TE buffer to 10 nM, of which 50 μl was added to each well of streptavidin-coated microtiter plate (Roche) and allowed to adsorb at 37° C. for 60 min. The plate was washed with phosphate buffer (Dulbecco's PBS, Sanko Junyaku Co., Ltd.) containing 0.1% Tween 20 and phosphate buffer. Then, a reaction mixture (70 μl) having the following composition, a test substance (10 μl) diluted with the reaction mixture and 100 μg/ml integrase protein (10 μl) were added to each well and reacted at 37° C. for 60 min. Composition of the reaction mixture: 30 mM MOPS (3-morpholinopropanesulfonic acid), 5 mM magnesium chloride, 3 mM DTT (dithiothreitol), 0.1 mg/ml BSA (bovine serum albumin), 5% glycerol, 10% DMSO (dimethyl sulfoxide), 0.01% Tween 20.
Then, 50 nM target DNA (10 μl) was added, and the mixture was reacted at 37° C. for 10 min and washed with phosphate buffer containing 0.1% Tween 20 to stop the reaction.
Then, 100 mU/ml peroxidase labeled anti-digoxigenin antibody solution (Roche, 100 μl) was added, and the mixture was reacted at 37° C. for 60 min, followed by washing with phosphate buffer containing 0.1% Tween 20.
A peroxidase color solution (Bio Rad, 100 μl) was added and allowed to react at room temperature for 4 min. The color reaction was stopped by adding 1N sulfuric acid (100 μl). The absorbance at 450 nm was measured. […]

SMILES	IC50 [nM]
O=C(O)c1ccc2ccc(Cc3cccc(Cl)c3F)cn2c1=O [Example 2, 7-(3-chloro-2-fluorobenzyl)-4-oxo-4H-quinolizine-3-carboxylic acid]	100 to 1000
CCc1cc(C(=O)O)c(=O)n2cc(Cc3cccc(Cl)c3F)ccc12 [Example 4, 7-(3-chloro-2-fluorobenzyl)-1-ethyl-4-oxo-4H-quinolizine-3-carboxylic acid]	10 to 100
O=C(O)c1cc(CCO)c2ccc(Cc3cccc(Cl)c3F)cn2c1=O [Example 7, 7-(3-chloro-2-fluorobenzyl)-1-(2-hydroxyethyl)-4-oxo-4H-quinolizine-3-carboxylic acid]	10 to 100
COc1cc2c([C@H](CO)C(C)C)cc(C(=O)O)c(=O)n2cc1Cc1cccc(Cl)c1F [Example 10, 7-(3-chloro-2-fluorobenzyl)-1-((R)-1-hydroxymethyl-2-methylpropyl)-8-methoxy-4-oxo-4H-quinolizine-3-carboxylic acid]	< 10
O=C(O)c1ccc2ccc(Cc3ccccc3)cn2c1=O [Example 11, 7-benzyl-4-oxo-4H-quinolizine-3-carboxylic acid]	1000 to 10000
CCCc1cc(C(=O)O)c(=O)n2cc(Cc3cccc(Cl)c3F)ccc12 [Example 12, 7-(3-chloro-2-fluorobenzyl)-4-oxo-1-propyl-4H-quinolizine-3-carboxylic acid]	10 to 100
CC(C)c1cc(C(=O)O)c(=O)n2cc(Cc3cccc(Cl)c3F)ccc12 [Example 13, 7-(3-chloro-2-fluorobenzyl)-1-isopropyl-4-oxo-4H-quinolizine-3-carboxylic acid]	10 to 100
C[C@@H](CO)c1cc(C(=O)O)c(=O)n2cc(Cc3cccc(Cl)c3F)ccc12 [Example 14, 7-(3-chloro-2-fluorobenzyl)-1-((R)-2-hydroxy-1-methylethyl)-4-oxo-4H-quinolizine-3-carboxylic acid]	10 to 100
CC(C)C(CO)c1cc(C(=O)O)c(=O)n2cc(Cc3cccc(Cl)c3F)ccc12 (centres unmarked) [Example 15, 7-(3-chloro-2-fluorobenzyl)-1-(1-hydroxymethyl-2-methylpropyl)-4-oxo-4H-quinolizine-3-carboxylic acid]	10 to 100
CC(C)(C)[C@@H](CO)c1cc(C(=O)O)c(=O)n2cc(Cc3cccc(Cl)c3F)ccc12 [Example 16, 7-(3-chloro-2-fluorobenzyl)-1-((R)-1-hydroxymethyl-2,2-dimethylpropyl)-4-oxo-4H-quinolizine-3-carboxylic acid]	< 10
COc1cc2c([C@H](CO)C(C)(C)C)cc(C(=O)O)c(=O)n2cc1Cc1cccc(Cl)c1F [Example 17, 7-(3-chloro-2-fluorobenzyl)-1-((R)-1-hydroxymethyl-2,2-dimethylpropyl)-8-methoxy-4-oxo-4H-quinolizine-3-carboxylic acid]	< 10
O=C(O)c1cc(CO)c2ccc(Cc3cccc(Cl)c3F)cn2c1=O [Example 18, 7-(3-chloro-2-fluorobenzyl)-1-hydroxymethyl-4-oxo-4H-quinolizine-3-carboxylic acid]	10 to 100
COCc1cc(C(=O)O)c(=O)n2cc(Cc3cccc(Cl)c3F)ccc12 [Example 19, 7-(3-chloro-2-fluorobenzyl)-1-methoxymethyl-4-oxo-4H-quinolizine-3-carboxylic acid]	100 to 1000
NCc1cc(C(=O)O)c(=O)n2cc(Cc3cccc(Cl)c3F)ccc12 [Example 20, 1-aminomethyl-7-(3-chloro-2-fluorobenzyl)-4-oxo-4H-quinolizine-3-carboxylic acid hydrochloric acid]	100 to 1000
CNCc1cc(C(=O)O)c(=O)n2cc(Cc3cccc(Cl)c3F)ccc12 [Example 21, 7-(3-chloro-2-fluorobenzyl)-1-methylaminomethyl-4-oxo-4H-quinolizine-3-carboxylic acid]	100 to 1000
CC(=O)NCc1cc(C(=O)O)c(=O)n2cc(Cc3cccc(Cl)c3F)ccc12 [Example 22, 1-(acetylaminomethyl)-7-(3-chloro-2-fluorobenzyl)-4-oxo-4H-quinolizine-3-carboxylic acid]	10 to 100
CS(=O)(=O)NCc1cc(C(=O)O)c(=O)n2cc(Cc3cccc(Cl)c3F)ccc12 [Example 23, 7-(3-chloro-2-fluorobenzyl)-1-(methylsulfonylaminomethyl)-4-oxo-4H-quinolizine-3-carboxylic acid]	1000 to 10000
COC(=O)NCc1cc(C(=O)O)c(=O)n2cc(Cc3cccc(Cl)c3F)ccc12 [Example 24, 7-(3-chloro-2-fluorobenzyl)-1-(methoxycarbonylaminomethyl)-4-oxo-4H-quinolizine-3-carboxylic acid]	10 to 100
NC(=O)Cc1cc(C(=O)O)c(=O)n2cc(Cc3cccc(Cl)c3F)ccc12 [Example 26, 1-carbamoylmethyl-7-(3-chloro-2-fluorobenzyl)-4-oxo-4H-quinolizine-3-carboxylic acid]	10 to 100
O=C(O)c1cc(NCCO)c2ccc(Cc3cccc(Cl)c3F)cn2c1=O [Example 27, 7-(3-chloro-2-fluorobenzyl)-1-(2-hydroxyethylamino)-4-oxo-4H-quinolizine-3-carboxylic acid]	100 to 1000
CS(=O)(=O)Nc1cc(C(=O)O)c(=O)n2cc(Cc3cccc(Cl)c3F)ccc12 [Example 29, 7-(3-chloro-2-fluorobenzyl)-1-methylsulfonylamino-4-oxo-4H-quinolizine-3-carboxylic acid]	100 to 1000
N#Cc1cc(C(=O)O)c(=O)n2cc(Cc3cccc(Cl)c3F)ccc12 [Example 33, 7-(3-chloro-2-fluorobenzyl)-1-cyano-4-oxo-4H-quinolizine-3-carboxylic acid]	10 to 100
O=C(O)c1cc(CCO)c2ncc(Cc3cccc(Cl)c3F)cn2c1=O [Example 34, 3-(3-chloro-2-fluorobenzyl)-9-(2-hydroxyethyl)-6-oxo-6H-pyrido[1,2-a]pyrimidine-7-carboxylic acid]	100 to 1000
CC(C)(C)OC(=O)NCc1cc(C(=O)O)c(=O)n2cc(Cc3cccc(Cl)c3F)ccc12 [Example 35, 1-(tert-butoxycarbonylamino)methyl-7-(3-chloro-2-fluorobenzyl)-4-oxo-4H-quinolizine-3-carboxylic acid]	10 to 100
O=C(O)Cc1cc(C(=O)O)c(=O)n2cc(Cc3cccc(Cl)c3F)ccc12 [Example 36, 1-carboxymethyl-7-(3-chloro-2-fluorobenzyl)-4-oxo-4H-quinolizine-3-carboxylic acid]	10 to 100
CC(C)(C)C(=O)NCc1cc(C(=O)O)c(=O)n2cc(Cc3cccc(Cl)c3F)ccc12 [Example 37, 7-(3-chloro-2-fluorobenzyl)-1-(2,2-dimethylpropionylamino)methyl-4-oxo-4H-quinolizine-3-carboxylic acid]	10 to 100
CN(C)Cc1cc(C(=O)O)c(=O)n2cc(Cc3cccc(Cl)c3F)ccc12 [Example 38, 7-(3-chloro-2-fluorobenzyl)-1-dimethylaminomethyl-4-oxo-4H-quinolizine-3-carboxylic acid]	100 to 1000
O=C(CO)NCc1cc(C(=O)O)c(=O)n2cc(Cc3cccc(Cl)c3F)ccc12 [Example 39, 7-(3-chloro-2-fluorobenzyl)-1-[(2-hydroxyacetylamino)methyl]-4-oxo-4H-quinolizine-3-carboxylic acid]	10 to 100
COCC(=O)NCc1cc(C(=O)O)c(=O)n2cc(Cc3cccc(Cl)c3F)ccc12 [Example 40, 7-(3-chloro-2-fluorobenzyl)-1-[(2-methoxyacetylamino)methyl]-4-oxo-4H-quinolizine-3-carboxylic acid]	10 to 100
